Columns and labels:
[1] = system: myoclonic seizures induced in mice by the administration of bicuculline; assay: BICM test: antagonism of myoclonic seizures induced in mice by bicuculline; type: in vivo; conditions: female mice, 1 h before (+)-bicuculline 0.55 mg/kg i.v.; for ED50: Mus musculus, oral, dose inhibiting seizures in 50% of the animals; for % protection from bicuculline-induced seizures: figure in brackets, 100 mg/kg (po)
Description: The ability of the compounds to antagonise the myoclonic seizures induced in mice by the administration of bicuculline was observed. Hereinafter, this test is referred to as "BICM".
In the BICM experiments groups of female mice in the weight range 25 to 30 grammes had free access to food and water until one hour before administration of the compound to be tested. The compound to be tested was orally administered at one or more doses in 1% aqueous methylcellulose solution. One hour later (+)-bicuculline at a dose of 0.55 mg/kg was administered intravenously into a tail vein. Such a dose of (+)-bicuculline would generally be expected to induce a seizure in the mice.
During the following two minutes the animals were observed and the percentage of animals in which seizures had been inhibited was recorded. Thus, the greater the anticonvulsant activity of the compound, the higher was the percentage recorded in the BICM test.
A value for the dose inhibiting the seizures in 50% of the animals (ED50) was calculated from the regression straight line plot of the percentage of animals in which seizures were inhibited against the dose of compound.

[2] = system: seizures in mice induced by a maximal electroshock; assay: MESM test: inhibition of seizures in mice induced by a maximal electroshock; type: in vivo; conditions: male mice, 1 h before electroshock (99 mA, 50 Hz, 1.0 second); for % protection from MES-induced seizure: figure in brackets, 100 mg/kg (po); for ED50: Mus musculus, oral, dose inhibiting seizures in 50% of the mice
Description: The ability of the compounds to inhibit seizures in mice induced by a maximal electroshock was observed. Hereinafter, this test is referred to as `MESM`.
In the MESM experiments, groups of male mice in the weight range 25 to 30 grammes had free access to food and water until the start of the experiment. The mice were divided into two groups, a control group and a test group to which a compound of formula I or II would be administered. The control group received an oral dose of 10 ml/kg of a vehicle of 1% aqueous methyl cellulose solution. […] One hour after administration of all drugs an electroshock of duration 1.0 second was administered to all the mice in both groups through ear clip electrodes moistened with saline. […] Such a shock would generally be expected to induce a seizure in the mice.
The greater the anticonvulsant activity of the compound of formula I or II, the higher was the percentage recorded in the MESM test.
If results at more than one dose were available, then a value for the dose inhibiting seizures in 50% of the mice (ED50) was calculated from the regression straight line plot of the percentage of mice in which seizures were inhibited against the dose of the compound of formula I or II administered.

SMILES	ED50 [1]	% protection from MES-induced seizure [2]	also measured
O=c1ccn(-c2ccc(Cl)cc2)nc1-c1ccnc(C2CCCCC2)n1 [Example 8, 3-(2-cyclohexylpyrimidin-4-yl)-1-(4-chlorophenyl)pyridazin-4(1H)-one]	12.9 mg/kg	–	–
CC(C)c1nccc(-c2nn(-c3ccc(Cl)cc3)ccc2=O)n1 [Example 5, 3-(2-isopropylpyrimidin-4-yl)-1-(4-chlorophenyl)pyridazin-4(1H)-one]	11.8 mg/kg	50%	–
CC(C)c1nccc(-c2nn(-c3ccc(F)cc3)ccc2=O)n1 [Example 2, 3-(2-isopropylpyrimidin-4-yl)-1-(4-fluorophenyl)pyridazin-4(1H)-one]	4.6 mg/kg	–	ED50 [2]: 83.4 mg/kg
O=c1ccn(-c2ccc(F)cc2)nc1-c1ccnc(C2CCCCC2)n1 [Example 7, 3-(2-cyclohexylpyrimidin-4-yl)-1-(4-fluorophenyl)pyridazin-4(1H)-one]	–	–	% protection from bicuculline-induced seizures [1]: 70%
CC(C)(C)c1nccc(-c2nn(-c3ccc(F)cc3)ccc2=O)n1 [Example 1, 3-(2-Tert-butylpyrimidin-4-yl)-1-(4-fluorophenyl)pyridazin-4(1H)-one]	4.7 mg/kg	–	–
O=c1ccn(-c2ccc(Cl)cc2)nc1-c1ccnc(C2CC2)n1 [Example 6, 3-(2-cyclopropylpyrimidin-4-yl)-1-(4-chlorophenyl)pyridazin-4(1H)-one]	–	–	% protection from bicuculline-induced seizures [1]: 60%
CCCc1nccc(-c2nn(-c3ccc(F)cc3)ccc2=O)n1 [Example 9, 3-(2-propylpyrimidin-4-yl)-1-(4-fluorophenyl)pyridazin-4(1H)-one]	–	50%	–
O=c1ccn(-c2ccc(Cl)cc2Cl)nc1-c1ccncn1 [Example 4, 3-(pyrimidin-4-yl)-1-(2,4-dichlorophenyl)pyridazin-4(1H)-one]	158 mg/kg	–	ED50 [2]: 73.6 mg/kg
O=c1ccn(-c2ccc(F)cc2)nc1-c1ccnc(-c2ccccc2)n1 [Example 3, 3-(2-phenylpyrimidin-4-yl)-1-(4-fluorophenyl)pyridazin-4(1H)-one]	–	50%	–
